Results as given in ChEMBL document CHEMBL5360638, “Development of an Affinity-Based Probe to Profile Endogenous Human Adenosine A3 Receptor Expression” (J Med Chem, 2023).
Activity calls are given as the source filed them. The rule behind the calls is not given here.

Legend:
[1] = target: T1, Adenosine receptor A3 (Homo sapiens) (UniProt P0DMS8); assay: Binding affinity to human A3AR expressed in granulocytes incubated for 1 hr by flow cytometry analysis; type: cell-based
T1 sequence (whole entry): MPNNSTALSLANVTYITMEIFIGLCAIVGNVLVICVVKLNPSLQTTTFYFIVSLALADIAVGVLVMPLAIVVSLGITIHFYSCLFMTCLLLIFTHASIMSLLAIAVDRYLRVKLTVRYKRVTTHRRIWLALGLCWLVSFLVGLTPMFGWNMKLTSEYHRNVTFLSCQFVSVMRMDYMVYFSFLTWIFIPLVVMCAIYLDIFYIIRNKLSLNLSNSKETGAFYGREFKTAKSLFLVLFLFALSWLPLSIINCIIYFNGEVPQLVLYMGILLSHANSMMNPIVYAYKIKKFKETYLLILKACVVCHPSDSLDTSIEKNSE

[2] = target: T1, Adenosine receptor A3 (Homo sapiens); assay: Binding affinity to human A3AR at 50 nM incubated for 1 hr by SDS-PAGE analysis
Homo sapiens = species: Homo sapiens; assay: Selectivity ratio of pKi for human A3AR to pKi for human A1AR
[3] = target: T1, Adenosine receptor A3 (Homo sapiens); assay: Binding affinity to human A3AR expressed in CHO cells membrane at 50 nM incubated for 1 hr by SDS-PAGE analysis; type: cell membranes
[4] = target: T1, Adenosine receptor A3 (Homo sapiens); assay: Binding affinity to human A3AR expressed in eosinophil incubated for 1 hr by flow cytometry analysis; type: cell-based

Compound: C#CCOc1ccn2c(c1)nc1c2c(=O)n(CCC)c(=O)n1CCCNC(=O)c1ccc(S(=O)(=O)F)cc1
- Activity [1]: inactive
- Activity [2]: Active
- Ratio pKi (Homo sapiens): > 17
- Activity [3]: Active
- Activity [4]: Active

Compound: C#CCn1c(=O)c2c(nc3cc(OC)ccn32)n(CCCNC(=O)c2ccc(S(=O)(=O)F)cc2)c1=O
- Activity [2]: Active

Compound: C#CCN(CCCn1c(=O)n(CCC)c(=O)c2c1nc1cc(OC)ccn12)C(=O)c1ccc(S(=O)(=O)F)cc1
- Activity [2]: Active
- Ratio pKi (Homo sapiens): > 100
